Results reported in US9676806B2, “Metal-based thiophene photodynamic compounds and their use” (priority 2012, dated 2017).

Tested on: pUC19 plasmid DNA
Assay: PDC-mediated pUC19 photocleavage, gel electrophoretic analysis
[1] = Air, +hv, 420-nm irradiation 1 hr, FIG. 15
[2] = Air, +hv, visible irradiation 1 hr, 21 W/m^2, FIG. 16
[3] = Ar, +hv, 420-nm irradiation 1 hr, FIG. 15
[4] = Ar, +hv, visible irradiation 1 hr, 21 W/m^2, FIG. 16

Description: FIG. 16: Gel electrophoretic analysis (1% agarose gel precast with 0.75 μg mL^−1 ethidium bromide, 1×TAE, 8 V cm^−1, 30 min.) of PDC-mediated pUC19 photocleavage in air-saturated and deoxygenated solution: visible irradiation of pUC19 (20 μM NP in 10 mM Tris·100 mM NaCl, pH 7.4) for 1 hr. with cool white fluorescent tubes, 21 W/m^2. Lanes 1 (−PDC, −hv), 2 (500 μM [Ru(bpy)3]^2+, −hv), and 5 (2 μM 10a, −hv) are controls. Lanes 3 (500 μM [Ru(bpy)3]^2+, +hv) and 6 (2 μM 10a, +hv) contain samples that were irradiated in air; lanes 4 and 7 are the corresponding samples irradiated in argon.
DNA photocleavage experiments were performed according to a general plasmid DNA assay with 20 μL total sample volumes in 0.5 or 1.5 mL microfuge tubes containing transformed pUC19 plasmid (200 ng, >95% Form I) in 10 mM MOPS buffer and 100 mM NaCl, pH 7.4. DNA (1-5 μL) was delivered to the assay tubes as a solution in 10 mM Tris-Cl (pH 8.5) and diluted with MOPS (pH 7.5, final concentration 10 mM) and NaCl (final concentration 100 mM). […] Complexes were dissolved initially in acetonitrile (2 μM stock solutions), and all subsequent dilutions were made with ddH2O where final assay tubes contained <1% acetonitrile. For concentration-based assays, samples (no pre-incubation period) were irradiated in air for 30 min with 420 nm light inside a photoreactor (Luzchem LZC-4X). Where irradiation of deoxygenated samples was required, argon was bubbled through the solutions for 15 min prior to irradiation under a positive pressure of argon. All samples were quenched by the addition of gel loading buffer (4 μL), loaded onto 1% agarose gels containing ethidium bromide (0.75 μg mL^−1), and electrophoresed for 30 min at 8-12 V cm^−1 in 1×TAE (40 mM Trisacetate, 1 mM EDTA, pH 8.2). The bands were visualized with UV-transillumination (UVP transilluminator) and quantified using the Gel Doc-It Imaging system (UVP) or GNU Image Manipulation Program (GIMP).

Structure (SMILES): [Ru+2].c1ccc(-c2ccccn2)nc1.c1ccc(-c2ccccn2)nc1.c1ccc(-c2ccccn2)nc1 [[Ru(bpy)^3]^2+]
- Form I [1]: 33%
- Form II [1]: 67%
- Form I [2]: 37%
- Form II [2]: 63%
- Form II (Air, dark, 420-nm experiment FIG. 15): 29%
- Form I (Air, dark, 420-nm experiment FIG. 15, 300 μM [Ru(bpy)3]2+, 2 μM 10a, 4 μM 10b, 8 μM 14a): 71%
- Form II (Air, dark, visible experiment FIG. 16): 28%
- Form I (Air, dark, visible experiment FIG. 16, 500 μM [Ru(bpy)3]2+, 2 μM 10a): 72%
- Form I [3]: 71%
- Form II [3]: 29%
- Form I [4]: 57%
- Form II [4]: 43%
